PubChem BioAssay AID1963860 (Molecular Pharmacology Branch, DTP, NCI, 2024)

Tested on: CN0375-F725-PDC KRAS spheroid viability
Assay: Anticancer human tumor CN0375-F725-PDC patient-derived colon carcinoma cell line growth inhibition [KRAS2]
Conditions: spheroids with HUVEC and MSC; for viability, T/C: stronger effect = lower value
Description: Multicellular complex tumor spheroid response to RAS pathway inhibitors in combination with a targeted agents in patient-derived cell lines with oncogenic KRAS variants from multiple cancer types
A high-throughput screen of multi-cell type tumor spheroids was designed to identify active combinations of targeted small molecules and KRAS pathway inhibitors. Complex spheroids include a stromal component modeled by human endothelial cells (HUVEC) and fibroblasts modeled by human mesenchymal stem cells (MSCs). The concentration ranges selected for each drug and investigational agent were based upon clinically achievable concentrations if the clinical Cmax of the agent was known.
Compounds. The drugs and investigational agents: BI-3406 (NSC825286), BAY-293 (NSC824723), batoprotafib (TNO155; NSC825523), sotorasib (AMG 510; NSC818433), MRTX1257 (NSC819558), elimusertib (BAY 1895344; NSC800525), molibresib (GSK525762; NSC774829), temuterkib (LY3214996; NSC803410), venetoclax (NSC766270), alisertib (NSC759677), olaparib (NSC753686), talazoparib (NSC767125), erdafitinib (NSC781556), ipatasertib (NSC767898), cabozantinib (NSC761068), nintedanib (NSC756659), abemaciclib (NSC768073), docetaxel (NSC628503), trametinib (NSC758246), and sapanisertib (NSC764658) were obtained from the National Cancer Institute (NCI) Developmental Therapeutics Program Chemical Repository. The FDA-approved anticancer drug set is available from the Developmental Therapeutics Program. […] The stock solutions were prepared in dimethyl sulfoxide (DMSO, Sigma-Aldrich, St. Louis, MO, cat. D2650) at 800-fold the tested concentration and stored at -70 degrees C prior to their use. All drugs and investigational agents were tested over a range starting from a high concentration at or near the clinical Cmax and decreasing in half-log increments. If the clinical Cmax for an agent had not been determined, the highest concentration tested was 10 microM.
Cell Culture. All cells were maintained in an incubator at 37 degrees C and 5% CO2 with 95% humidity. The PDC lines were cultured according to standard operating procedures established by the NCI PDMR (https://pdmr.cancer.gov/sops/default.htm). Briefly, all PDCs were thawed and cultured in Matrigel-coated flasks prepared with a working solution of 1X Ham's F-12 nutrient mix, without supplementation (Invitrogen, Waltham, MA, cat. 11765054), 100 U/mL penicillin-streptomycin (Invitrogen, cat. 15140122), and 2.5% Matrigel (Corning Inc., Corning, NY, cat. 354248) for the first three passages. All PDCs were cultured in complete DMEM/F-12 media containing advanced DMEM/F-12 (Invitrogen, cat. 12634028), 4.9% defined fetal bovine serum, heat inactivated (HyClone Laboratories Inc., Logan, UT, cat. SH30070.03HI), 389 ng/mL hydrocortisone (Sigma-Aldrich, cat. H4001), 9.7 ng/mL human EGF recombinant protein (Invitrogen, cat. PHG0313), 23.4 microg/mL adenine (Sigma-Aldrich, cat. A2786), 97.3 U/mL penicillin-streptomycin (Invitrogen, cat. 15140122), 1.9 mM L-glutamine (Invitrogen, cat. 25030081), and 9.7 microM Y-27632 dihydrochloride (Tocris Bioscience, Bristol, United Kingdom, cat. 1254). The PDCs were cultured in complete DMEM/F12 media without 9.7 microM Y-27632 dihydrochloride for at least two passages prior to the screen. The established cell line HOP-62 was cultured in RPMI 1640 medium, HEPES (Invitrogen, cat. 22400105) with 10% defined fetal bovine serum (HyClone Laboratories Inc., cat. SH30070.03) and 2 mM L-glutamine (Invitrogen, cat. 25030081). The pooled donor HUVEC were cultured in endothelial cell growth medium 2 (PromoCell, Heidelberg, Germany, cat. C-22011) and the hMSC were cultured in mesenchymal stem cell growth medium 2 (PromoCell, cat. C-28009). For all experiments, HUVEC and hMSC were used at passages </=5, while the malignant cell lines were used at passages </=15. […]

[1] = curve of first compound, second compound 0.1 µM
[2] = curve of first compound, second compound 0.316 µM
[3] = curve of first compound, second compound 1 µM
[4] = curve of first compound, second compound 3.16 µM
[5] = second compound 0.1 µM, first compound 0.0316 µM
[6] = second compound 0.1 µM, first compound 0.1 µM
[7] = second compound 0.1 µM, first compound 0.316 µM
[8] = second compound 0.1 µM, first compound 1 µM
[9] = second compound 0.1 µM, first compound 3.16 µM
[10] = second compound 0.1 µM, first compound 10 µM
[11] = second compound 0.316 µM, first compound 0.0316 µM
[12] = second compound 0.316 µM, first compound 0.1 µM
[13] = second compound 0.316 µM, first compound 0.316 µM
[14] = second compound 0.316 µM, first compound 1 µM
[15] = second compound 0.316 µM, first compound 3.16 µM
[16] = second compound 0.316 µM, first compound 10 µM
[17] = second compound 1 µM, first compound 0.0316 µM
[18] = second compound 1 µM, first compound 0.1 µM
[19] = second compound 1 µM, first compound 0.316 µM
[20] = second compound 1 µM, first compound 1 µM
[21] = second compound 1 µM, first compound 3.16 µM
[22] = second compound 1 µM, first compound 10 µM
[23] = second compound 3.16 µM, first compound 0.0316 µM
[24] = second compound 3.16 µM, first compound 0.1 µM
[25] = second compound 3.16 µM, first compound 0.316 µM
[26] = second compound 3.16 µM, first compound 1 µM
[27] = second compound 3.16 µM, first compound 3.16 µM
[28] = second compound 3.16 µM, first compound 10 µM
[29] = curve of first compound, second compound 10 µM
[30] = second compound 10 µM, first compound 0.0316 µM
[31] = second compound 10 µM, first compound 0.1 µM
[32] = second compound 10 µM, first compound 0.316 µM
[33] = second compound 10 µM, first compound 1 µM
[34] = second compound 10 µM, first compound 3.16 µM
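Note: spheroids exposed to agents for 7 days.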

SMILES | IC50 [1] | IC50 [2] | IC50 [3] | IC50 [4] | viability, T/C [5] | viability, T/C [6] | viability, T/C [7] | viability, T/C [8] | viability, T/C [9] | viability, T/C [11] | viability, T/C [12] | viability, T/C [13] | viability, T/C [14] | viability, T/C [15] | viability, T/C [17] | viability, T/C [18] | viability, T/C [19] | viability, T/C [20] | viability, T/C [21] | viability, T/C [23] | further results
CC1(C)CCC(CN2CCN(c3ccc(C(=O)NS(=O)(=O)c4ccc(NCC5CCOCC5)c([N+](=O)[O-])c4)c(Oc4cnc5[nH]ccc5c4)c3)CC2)=C(c2ccc(Cl)cc2)C1 + C=CC(=O)N1CCN(c2nc(OCC3CCCN3C)nc3c2CCN(c2cccc4cccc(C)c24)C3)CC1CC#N | 4630 nM | 2670 nM | 2010 nM | < 31.6 nM | 104% | 104% | 102% | 99% | 66.3% | 101% | 108% | 101% | 96.6% | 42% | 96.6% | 97.2% | 100% | 86.3% | 26.2% | 11% | IC50 (curve of first compound, second compound 0.0316 µM): 3980 nM; viability, T/C (second compound 0.0316 µM, first compound 0.0316 µM): 108%; viability, T/C (second compound 0.0316 µM, first compound 0.1 µM): 102%; viability, T/C (second compound 0.0316 µM, first compound 0.316 µM): 101%; viability, T/C (second compound 0.0316 µM, first compound 1 µM): 107%; viability, T/C (second compound 0.0316 µM, first compound 3.16 µM): 58.5%; viability, T/C (second compound 0.0316 µM, first compound 10 µM): 15.9%; viability, T/C [10]: 17%; viability, T/C [16]: 14.3%; viability, T/C [22]: 5.23%; viability, T/C [24]: 12%; viability, T/C [25]: 3.38%; viability, T/C [26]: 3.27%; viability, T/C [27]: 0.38%; viability, T/C [28]: 0.17%
CC(=O)OC12COC1CC(O)C1(C)C(=O)C(O)C3=C(C)C(OC(=O)C(O)C(NC(=O)OC(C)(C)C)c4ccccc4)CC(O)(C(OC(=O)c4ccccc4)C21)C3(C)C (stereo not given) + C=CC(=O)N1CCN(c2nc(=O)n(-c3c(C)ccnc3C(C)C)c3nc(-c4c(O)cccc4F)c(F)cc23)C(C)C1 | > 3160 nM | > 3160 nM | > 3160 nM | > 3160 nM | 97.4% | 88.5% | 86.6% | 86.5% | 76.8% | 97.8% | 94.4% | 93.1% | 85.7% | 81.7% | 98.2% | 91.8% | 87.1% | 88% | 80% | 93.8% | IC50 [29]: > 3160 nM; viability, T/C (second compound 0.1 µM, first compound 0.01 µM): 100%; viability, T/C (second compound 0.316 µM, first compound 0.01 µM): 99.8%; viability, T/C (second compound 1 µM, first compound 0.01 µM): 96.6%; viability, T/C (second compound 3.16 µM, first compound 0.01 µM): 97.8%; viability, T/C [24]: 90.5%; viability, T/C [25]: 88.2%; viability, T/C [26]: 86.1%; viability, T/C [27]: 89.5%; viability, T/C (second compound 10 µM, first compound 0.01 µM): 93.8%; viability, T/C [30]: 92.5%; viability, T/C [31]: 88.1%; viability, T/C [32]: 84.9%; viability, T/C [33]: 74.8%; viability, T/C [34]: 79.9%
COC(=O)c1ccc2c(C(=Nc3ccc(N(C)C(=O)CN4CCN(C)CC4)cc3)c3ccccc3)c(O)[nH]c2c1 + COc1cc2nc(C)nc(NC(C)c3cc(N)cc(C(F)(F)F)c3)c2cc1OC1CCOC1 | 2140 nM | 3580 nM | 2400 nM | 1460 nM | 97% | 102% | 91.3% | 87.1% | 31.2% | 97.9% | 99.5% | 86.3% | 85.3% | 55.4% | 91.8% | 91.5% | 85% | 77% | 41.6% | 85.8% | IC50 [29]: < 31.6 nM; viability, T/C [10]: 0.21%; viability, T/C [16]: 0.5%; viability, T/C [22]: 0.19%; viability, T/C [24]: 78.8%; viability, T/C [25]: 80.6%; viability, T/C [26]: 66.8%; viability, T/C [27]: 16.1%; viability, T/C [28]: 0.48%; viability, T/C [30]: 18.3%; viability, T/C [31]: 18.9%; viability, T/C [32]: 13.1%; viability, T/C [33]: 9.52%; viability, T/C [34]: 1.91%; viability, T/C (second compound 10 µM, first compound 10 µM): 0.15%
CNCc1ccccc1-c1csc(C(C)Nc2nc(C)nc3cc(OC)c(OC)cc23)c1 (stereo not given) | – | – | – | – | – | – | – | – | – | – | – | – | – | – | – | – | – | – | – | – | viability, T/C (compound 0.1 µM): 98.1% [middle of 17 runs]; viability, T/C (compound 0.316 µM): 92.8% [middle of 17 runs]; viability, T/C (compound 10 µM): 0.33% [middle of 15 runs]; IC50 (compound alone, run of 08/26/2021): 988 nM [middle of 5 runs]; IC50 (compound alone, run of 09/02/2021): 1.33 µM [middle of 6 runs]
